Drawing on patent US9789096B2, “Methods and compositions for selective and targeted cancer therapy” (Board of Regents of the University of Texas System, priority 2013, dated 2017), this text covers IC50 and AC50 for 18 molecules.

Common to all, as to assay type: cell-based, human
One experiment relates to H2009. As to the kind of experiment: Cell viability dose-response, H2009. Particulars: Homo sapiens; for pIC50 / AC50: 12-point dose-response starting at 50 micromolar; for pIC50: 3-fold increments, in duplicate, read-out: toxicity data, H2009; for AC50: NCI-H2009, Table 8. How it is done: (§1) FIG. 6A. […] Cell viability is plotted vs. compound concentration. Compound was added to cells plated at 15% confluence in 96-well plates in RPMI-1640 media supplemented with 5% Fetal Bovine Serum and 2 mM L-Glutamine. After 4 days of incubation, ATP levels were measured using Cell Titer Glo (Promega). Data are presented as the average of 2 replicates ±SEM.
(§2) Selectivity may be measured by the half maximal inhibitory concentration (IC50), which, as used herein, is a measure of the effectiveness of a compound in killing cells. This quantitative measure indicates how much of a particular compound is needed to kill a particular cell population by half (e.g., as indicated by the amount of ATP). […] The IC50 can be determined by constructing a dose-response curve. The lower the IC50, the higher the potency, and the greater the difference between IC50 values for different cell lines (e.g., sensitive lines vs. insensitive lines, and sensitive lines vs. normal lines) the greater the selectivity. […]
(§3) With this information, we synthesized and tested a series of small molecules derived in conception from the oxalamide and chromone scaffold including N-acyl ureas, as shown in Tables 6-8. Each compound was tested in a 12-point dose-response study starting at 50 micromolar and decreasing in 3-fold increments to sub-nanomolar concentrations, in duplicate. Additionally, one or more additional cell line was tested in the same way.

A further experiment deals with H2122. The experiment can be described thus: Cell viability dose-response, H2122. Particulars: Homo sapiens; for AC50: NCI-H2122, Table 8, 12-point dose-response starting at 50 micromolar. The method in brief:
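Cells plated at 15% confluence in RPMI-1640 with 5% FBS and 2 mM L-glutamine, treated with compound in a 12-point, 3-fold dilution series from 50 micromolar, in duplicate. ATP measured by Cell Titer Glo after 4 days; IC50 taken from the dose-response curve.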

In another experiment the test system is HCC44. The experiment can be described thus: Cell viability dose-response, HCC44. Particulars: Homo sapiens; for pIC50: HCC44, 12-point dose-response starting at 50 micromolar, 3-fold increments, in duplicate, read-out: toxicity data, HCC44; for AC50: HCC44, Table 8, 12-point dose-response starting at 50 micromolar. How it is done:
as §1, §2, §3

Setting [1] is: NCI-H2122, 12-point dose-response starting at 50 micromolar, 3-fold increments, in duplicate, read-out: toxicity data, H2122.
Where [2] appears, read: NCI-H2122, Table 9, competitor, read-out: IC50 to H2122 cells.

Each structure is given as a SMILES string. pIC50: −log10 of the molar value. Where two headings read alike, the source gives them in different places. A value given as a limit tells only on which side of the number the result lay.

As usually defined, the AC50 is the midpoint of the concentration-response curve, whichever way the signal moves. A low value points to activity at low concentration. The IC50 is the midpoint of a concentration-inhibition curve.

In the case of `COc1ccc(CCNC(=O)NC(=O)c2ccc(C(=O)NCc3ccccc3)cc2)cc1` [SW208412-1-A], the pIC50 in the experiment on H2009 (NCI-H2009) is 5.67; in the experiment with H2122 (setting [1]) it was 6.57; in the experiment with H2122 (setting [2]), 6.56; in the experiment with HCC44, ≤ 4.31.

As for `COc1ccc(CCNC(=O)NC(=O)c2ccc(Cl)cc2)cc1` [SW208401-1-A], the pIC50 in the experiment on H2009 (NCI-H2009) is ≤ 4.31; in the experiment on H2122 (setting [1]) it was 6.82; in the experiment on H2122 (setting [2]), 7.05; in the experiment with HCC44 it was 6.27.

Turning to `O=c1c(Oc2ccccc2)coc2cc(OCc3cnn(-c4ccccc4)c3)ccc12` [SW 208586-1], the AC50 was determined as 49.5 µM with H2009, 110 nM in the experiment on H2122 and 0.15 µM with HCC44.

As for `COc1ccc(CCNC(=O)NC(=O)c2ccc(C(=O)N3CCN(C)CC3)cc2)cc1` [SW208414-1-A], the pIC50 in the experiment on H2009 (NCI-H2009) was 5.30; in the experiment with H2122 (setting [1]), ≤ 4.31; in the experiment on HCC44, ≤ 4.31.

For `COc1ccc(CCNC(=O)NC(=O)c2ccc(-c3ccc(OC)cc3)cc2)cc1` [SW208387-1-A], the pIC50 is ≤ 4.31 in the experiment with H2009 (NCI-H2009), 6.74 in the experiment with H2122 (setting [1]) and 6.60 in the experiment on HCC44.

Regarding `COc1ccccc1C(=O)c1ccc(C(=O)NC(=O)NCCc2ccc(O)cc2)cc1` [SW208580-1-A], the pIC50 with H2009 (NCI-H2009) is 5.67; in the experiment on H2122 (setting [1]), 5.02; in the experiment with H2122 (setting [2]), 6.10; with HCC44 it was 5.09.

`O=C(c1ccccc1)c1coc2cc(OCc3cnn(-c4ccccc4)c3)ccc2c1=O` [SW208844-1]: the AC50 came out at 30 µM in the experiment on H2009, 864 nM with H2122 and 23.7 µM with HCC44.

Consider `O=c1c(C2=CCCCC2)coc2cc(OCc3cnn(-c4ccccc4)c3)ccc12` [SW208764-1], for which the AC50 with H2009 is 49.5 µM; in the experiment on H2122, ≥ 49500 nM; in the experiment with HCC44, 49.5 µM.

As for `O=C(NCCc1ccc(O)cc1)NC(=O)c1ccc(C(=O)c2ccccc2)cc1` [SW208459-1-A], the pIC50 with H2009 (NCI-H2009) is 6.52; in the experiment with H2122 (setting [1]) it was 7.01; in the experiment on H2122 (setting [2]), 7.42; with HCC44, 7.14.

In the case of `O=c1c(Oc2ccccc2F)coc2cc(OCc3cnn(-c4ccc(F)cc4)c3)ccc12` [SW208468], the AC50 in the experiment with H2009 is 22.3 µM; with H2122, ≥ 49500 nM; in the experiment on HCC44, 49.5 µM.

For `O=C(Nc1ncc(Cc2ccccc2)s1)c1ccc(C(=O)c2ccccc2)cc1` [SW208834], the half-inhibitory concentration (IC50) in the experiment with H2009 (NCI-H2009, Tables 3 and 4, read-out: IC50 (uM) vs indicated non-small cell lung cancer cell line H2009) was determined as 16.5 µM; with H2122 (NCI-H2122, Tables 3 and 4, read-out: IC50 (uM) vs indicated non-small cell lung cancer cell line H2122) it was 3.55 µM; in the experiment on HCC44 (HCC44, Tables 3 and 4, read-out: IC50 (uM) vs indicated non-small cell lung cancer cell line HCC44) it was 49.5 µM.

`COc1ccc(CCNC(=O)NC(=O)c2ccc(-c3ccncc3)cc2)cc1` [SW208404-1-A]: the pIC50 in the experiment with H2009 (NCI-H2009) was ≤ 4.31; in the experiment on H2122 (setting [1]) it was 4.66; with HCC44, ≤ 4.31.

For `O=c1c(-c2ccccc2)coc2cc(OCc3cnn(-c4ccccc4)c3)ccc12` [SW 208631-1], the concentration at half-maximal activity (AC50) came out at 49.5 µM in the experiment with H2009, 280 nM in the experiment with H2122 and 49.5 µM in the experiment with HCC44.

Consider `COc1ccc(CCNC(=O)NC(=O)c2ccc(OC)cc2)cc1` [SW208402-1-A], for which the values for the pIC50 in the experiment on H2009 (NCI-H2009), in the experiment with H2122 (setting [1]) and with HCC44 were ≤ 4.31, 5.99 and ≤ 4.31, respectively.

Regarding `COc1ccc(CCNC(=O)NC(=O)c2cccc(-c3ccncc3)c2)cc1` [SW208396-1-A], the results for the pIC50 in the experiment on H2009 (NCI-H2009), in the experiment on H2122 (setting [1]) and with HCC44 were 5.31, 5.65 and ≤ 4.31, respectively.

Consider `COc1ccc(CCNC(=O)NC(=O)c2ccc(C(Cl)c3ccccc3)cc2)cc1` (centres unmarked) [SW208563-1-A], for which the pIC50 is 6.00 with H2009 (NCI-H2009), 7.22 with H2122 (setting [1]) and 7.52 with HCC44.

On to `COc1ccc(CCNC(=O)NC(=O)c2ccc(C(=O)c3ccc(OC)cc3)cc2)cc1` [SW208220-1-A], for which the pIC50 in the experiment on H2009 (NCI-H2009) was ≤ 4.31; with H2122 (setting [1]) it was ≤ 4.31; in the experiment with H2122 (setting [2]) it was 6.10; in the experiment on HCC44, ≤ 4.31.

With `Cc1ccccc1Oc1coc2cc(OCc3cnn(-c4ccccc4)c3)ccc2c1=O` [SW 208593-1], the values for the AC50 in the experiment on H2009, with H2122 and in the experiment on HCC44 were > 15 µM, 110 nM and > 15 µM, respectively.
